# Experimental data as given in ChEMBL document CHEMBL3832761, “MMV Pathogen Box Bioactivity Data” (2017).
# pIC50: −log10 of the molar value.
# Assays:
# HepG2 = test: Cytotoxicity data HepG2 CC20 (uM); assay type: functional
# Cryptosporidium parvum [1] = test: AntiCryptosporidium parvum activity Compounds added at t0, IC 50 (uM); assay type: functional, organism-based
# Cryptosporidium parvum [2] = test: AntiCryptosporidium parvum activity Compounds added 3h after t0, IC 50 (uM); assay type: functional, organism-based
# [3] = HL60 CC50 (uM) Cytotoxicity; assay type: functional; settings: HL-60
# Toxoplasma gondii [4] = test: AntiToxoplasma gondii activity data 2-day killing assay: inhibition at 10 uM (%) Experiment C; assay type: functional; settings: 48 h
# Toxoplasma gondii [5] = test: AntiToxoplasma gondii activity data Inhibition of plaque forming efficiency (%) Experiment A; assay type: functional; design: concentration or dose not given beside the values
# Toxoplasma gondii [6] = test: AntiToxoplasma gondii activity data 2-day killing assay: inhibition at 10 uM (%) Experiment E; assay type: functional
# Toxoplasma gondii [7] = test: AntiToxoplasma gondii activity data 2-day killing assay: IC50 (uM), Experiment G; assay type: functional, organism-based
# Toxoplasma gondii [8] = test: AntiToxoplasma gondii activity data 2-day killing assay: inhibition at 10 uM (%) Experiment D; assay type: functional
# Toxoplasma gondii [9] = test: AntiToxoplasma gondii activity data 2-day killing assay: IC50 (uM), Experiment F; assay type: functional, organism-based; settings: Toxoplasma gondii, 48 h; read-out: IC50
# Onchocerca ochengi [10] = test: AntiOnchocerca activity O. ochengi adult females: final mean inhibition motility at 10 uM on Day 7 (%); assay type: functional
# Onchocerca gutturosa [11] = test: AntiOnchocerca activity O. gutturosa adult males: MTT reduction at 12.5 uM (%); assay type: functional; design: scale not given: the % may be the effect or the level left
# Onchocerca volvulus = test: AntiOnchocerca activity O. volvulus L3 Molting assay: inhibition at 10 uM (%); assay type: functional
# Onchocerca gutturosa [12] = test: AntiOnchocerca activity O. gutturosa adult males: Motility reduction at 12.5 uM (%); assay type: functional; design: scale not given: the % may be the effect or the level left
# Onchocerca lienalis = test: AntiOnchocerca activity O. lienalis microfilariae Motility reduction (%); assay type: functional; design: concentration or dose not given beside the values
# Brugia pahangi = test: AntiBrugia pahangi activity Average inhibition motility at 10 uM (%); assay type: functional
# Onchocerca ochengi [13] = test: AntiOnchocerca activity O. ochengi adult males: final mean inhibition motility at 10 uM on Day 5 (%); assay type: functional
# MRC5 = test: MRC5 CC50 (uM) Cytotoxicity; assay type: functional; settings: Homo sapiens
# Leishmania donovani [14] = test: AntiLeishmania activity L. donovani (macrophages) IC50 (uM); assay type: functional, organism-based
# Trypanosoma brucei [15] = test: AntiTrypanosoma brucei activity T. b. rhodesiense IC50 (uM); assay type: functional, organism-based
# Trypanosoma cruzi = test: AntiTrypanosoma cruzi activity IC50 (uM); assay type: functional, organism-based
# Leishmania donovani [16] = test: AntiLeishmania activity L. donovani (axenic) IC50 (uM); assay type: functional, organism-based
# L6 = test: L6 CC50 (uM) Cytotoxicity; assay type: functional; settings: Rattus norvegicus
# Trypanosoma brucei [17] = test: AntiTrypanosoma brucei activity T. b. brucei IC50 (uM); assay type: functional, organism-based
# [18] = PMM CC50 (uM) Cytotoxicity; assay type: functional; settings: Macrophage
# Leishmania infantum = test: AntiLeishmania activity L. infantum (macrophages) IC50 (uM); assay type: functional, organism-based
# Leishmania = test: AntiLeishmania activity Toxicity on infected PMM (uM); assay type: functional
structure (smiles),measurement,setting,value
Clc1ccc(-n2cc(COc3ccnc4ccccc34)nn2)cc1,CC20,HepG2,13.6 µM
same,pIC50,Cryptosporidium parvum [1],< 5.30
same,pIC50,Cryptosporidium parvum [2],5.82
same,CC50,[3],> 50 µM
Cc1cc(NC(=O)c2ccc(Oc3ccc(Cl)cc3O)o2)no1,inhibition at 10 µM,Toxoplasma gondii [4],70%
same,Inhibition,Toxoplasma gondii [5],~85%
same,Inhibition,Toxoplasma gondii [6],22%
same,CC50,[3],> 50 µM
same,IC50,Toxoplasma gondii [7],no inhibition
same,Inhibition,Toxoplasma gondii [8],64.8%
same,pIC50,Toxoplasma gondii [9],5.14
O=C(c1ccc(F)cc1)N(CCNc1ccccc1)c1ccccc1,CC20,HepG2,18.5 µM
same,Inhibition,Onchocerca ochengi [10],0%
same,Activity,Onchocerca gutturosa [11],0%
same,Inhibition,Onchocerca volvulus,89%
same,Activity,Onchocerca gutturosa [12],28.6%
same,CC50,[3],> 50 µM
same,Activity,Onchocerca lienalis,13.3%
same,Inhibition,Brugia pahangi,17%
same,Inhibition,Onchocerca ochengi [13],0%
COc1ccc(OC)c(NCc2ccc3nc(N)nc(N)c3c2Cl)c1,CC20,HepG2,3.44 µM
same,pIC50,Cryptosporidium parvum [1],7.00
same,pIC50,Cryptosporidium parvum [2],5.40
same,CC50,[3],> 25 µM
COC(=O)c1c(NC(=O)c2cc3ccccc3oc2=O)sc2c1CCN(Cc1ccccc1)C2,CC20,HepG2,12.3 µM
same,Inhibition,Onchocerca ochengi [10],8%
same,Activity,Onchocerca gutturosa [11],0%
same,Inhibition,Onchocerca volvulus,100%
same,Activity,Onchocerca gutturosa [12],21.4%
same,CC50,[3],> 50 µM
same,Activity,Onchocerca lienalis,33.3%
same,Inhibition,Brugia pahangi,10%
same,Inhibition,Onchocerca ochengi [13],0%
Nc1ncnc2[nH]nc(Cc3cccc4ccccc34)c12,inhibition at 10 µM,Toxoplasma gondii [4],54.7%
same,Inhibition,Toxoplasma gondii [5],100%
same,Inhibition,Toxoplasma gondii [6],63.3%
same,CC50,[3],> 25 µM
same,pIC50,"Toxoplasma gondii [7]; Toxoplasma gondii, 48 h, read-out: IC50",5.52
same,Inhibition,Toxoplasma gondii [8],89.2%
same,pIC50,Toxoplasma gondii [9],5.64
O=C(Nc1c(O)cccc1-c1nc2c(C(=O)O)cccc2o1)c1cc(-c2ccccc2)on1,CC20,HepG2,5.73 µM
same,CC50,MRC5,> 32 µM
same,pIC50,Leishmania donovani [14],< 4.52
same,pIC50,Trypanosoma brucei [15],< 4.49
same,pIC50,Trypanosoma cruzi,< 4.49
same,pIC50,Leishmania donovani [16],6.24
same,CC50,L6,21.9 µM
same,pIC50,Trypanosoma brucei [17],< 4.49
same,CC50,[18],> 32 µM
same,pIC50,Leishmania infantum,< 4.49
same,Toxicity on infected macrophages,Leishmania,>30 µM
CS(=O)(=O)N1CCC(Cn2nc(Cc3cccc4ccccc34)c3c(N)ncnc32)CC1,CC20,HepG2,53 µM
same,pIC50,Cryptosporidium parvum [1],7.00
same,pIC50,Cryptosporidium parvum [2],< 5.00
same,CC50,[3],47.3 µM
CN1CCC(c2cc(-c3ccncc3)c(-c3ccc(F)cc3)[nH]2)CC1,inhibition at 10 µM,Toxoplasma gondii [4],99.3%
same,Inhibition,Toxoplasma gondii [5],100%
same,Inhibition,Toxoplasma gondii [6],97.9%
same,CC50,[3],> 50 µM
same,Inhibition,Toxoplasma gondii [8],100%
same,pIC50,Toxoplasma gondii [9],5.92
COc1ccc(-c2nn(C(C)C)c3ncnc(N)c23)cc1OC,CC20,HepG2,1.63 µM
same,pIC50,Cryptosporidium parvum [1],6.30
same,pIC50,Cryptosporidium parvum [2],4.86
same,CC50,[3],25.1 µM
CC(C)C(Oc1cccc2ccccc12)C(=O)O (stereo not drawn),CC20,HepG2,>80 µM
same,pIC50,Cryptosporidium parvum [1],< 5.00
same,pIC50,Cryptosporidium parvum [2],< 5.00
same,CC50,[3],> 50 µM
Cc1nc(-c2ccccn2)nc(NCCc2ccc(S(C)(=O)=O)cc2)c1Cl,CC20,HepG2,27.9 µM
same,CC50,MRC5,> 32 µM
same,pIC50,Leishmania donovani [14],< 4.52
same,pIC50,Trypanosoma brucei [15],< 4.49
same,pIC50,Trypanosoma cruzi,5.35
same,pIC50,Leishmania donovani [16],5.69
same,CC50,L6,13 µM
same,pIC50,Trypanosoma brucei [17],< 4.49
same,CC50,[18],> 32 µM
same,pIC50,Leishmania infantum,< 4.49
same,Toxicity on infected macrophages,Leishmania,30 µM
Cc1nc(-c2ccccn2)nc(N(C)CCc2ccccc2)c1Cl,CC20,HepG2,11.3 µM
same,CC50,MRC5,21.7 µM
same,pIC50,Leishmania donovani [14],5.59
same,pIC50,Trypanosoma brucei [15],4.93
same,pIC50,Trypanosoma cruzi,6.06
same,pIC50,Leishmania donovani [16],7.70
same,CC50,L6,9.6 µM
same,pIC50,Trypanosoma brucei [17],4.83
same,CC50,[18],4 µM
same,pIC50,Leishmania infantum,5.39
same,Toxicity on infected macrophages,Leishmania,16.7 µM
CC(C)(C)n1nc(Cc2ccc(F)c(Cl)c2)c2c(N)ncnc21,inhibition at 10 µM,Toxoplasma gondii [4],98.3%
same,Inhibition,Toxoplasma gondii [5],100%
same,Inhibition,Toxoplasma gondii [6],95.5%
same,CC50,[3],> 25 µM
same,Inhibition,Toxoplasma gondii [8],100%
same,pIC50,Toxoplasma gondii [9],5.77
Nc1ncnc2c1c(Cc1cccc3ccccc13)nn2CC1CCNCC1,CC20,HepG2,>80 µM
same,pIC50,Cryptosporidium parvum [1],6.30
same,pIC50,Cryptosporidium parvum [2],4.59
same,CC50,[3],> 50 µM
CCOc1ccc2cc(-c3nn(CC4CCN(C)CC4)c4ncnc(N)c34)ccc2c1,pIC50,Cryptosporidium parvum [1],7.30
FC(F)(F)c1cc(NCCc2ccccc2)nc(-c2ccccn2)n1,CC20,HepG2,>80 µM
same,CC50,MRC5,> 32 µM
same,pIC50,Leishmania donovani [14],5.29
same,pIC50,Trypanosoma brucei [15],4.57
same,pIC50,Trypanosoma cruzi,5.37
same,pIC50,Leishmania donovani [16],6.60
same,CC50,L6,5.3 µM
same,pIC50,Trypanosoma brucei [17],< 4.49
same,CC50,[18],16 µM
same,pIC50,Leishmania infantum,4.79
same,Toxicity on infected macrophages,Leishmania,30 µM
